Counter-ions that a name gives are not always drawn. Like-named read-outs stand apart in the source and are kept apart here.
Key:
[1] = target: human STING (Homo sapiens, UniProt Q86WV6); assay: Fluorescence Thermal Shift assay (binding to STING); details: STING 0.1 mg/mL, SyproOrange, 25 to 99° C.
Experimental: Compounds, constructs and conjugates of the present invention were tested for binding to human STING in Fluorescence Thermal Shift assay. STING was preincubated with the compounds for 20 minutes in 50 mM Hepes, 150 mM NaCl, pH 7.5 in 15 or 16 μl volume, following by adding 4 μl of SyproOrange dye dilution (ThermoFisher, cat no. S-6651). Final STING concentration was 0.1 mg/mL. Thermal unfolding was performed in Real-Time PCR QuantStudio 6 Flex System (Applied Biosystems), from 25 to 99° C., with continuous ramp mode and ramp rate 0.033° C./s. The data were analyzed using Protein Thermal Shift Software (ThermoFisher).

[2] = tested on: interferon regulatory factor (IRF) pathway in THP-1 dual cells; assay: THP-1 Dual reporter assay, IRF pathway (luciferase); format: cell-based; details: Homo sapiens, THP1-Dual, read-out: THP1 Dual EC50 (μM) IRF
Outline: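 Dual-reporter THP-1 cells treated 18 h with STING agonist; secreted luciferase (IRF) and SEAP (NF-κB) quantified from medium by luminescence and colorimetric absorbance, respectively.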

[3] = tested on: NF-κB pathway in THP-1 dual cells; assay: THP-1 Dual reporter assay, NF-κB pathway (SEAP); format: cell-based; details: Homo sapiens, THP1-Dual, read-out: THP1 Dual EC50 (μM) NFkB
Outline: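 Compounds (STING agonists) stimulated THP-1 dual cells for 18 h; the cells carry an ISG54 promoter/ISRE-driven luciferase (IRF) and an IFN-β minimal promoter/NF-κB element-driven SEAP. Luciferase in conditioned medium was read by luminescence immediately; SEAP by absorbance at 630 or 655 nm after 1 or 2 h at 37° C.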

[4] = 18 h stimulation, absorbance at 630 or 655 nm

Chain of human STING (Q86WV6 whole entry H232R): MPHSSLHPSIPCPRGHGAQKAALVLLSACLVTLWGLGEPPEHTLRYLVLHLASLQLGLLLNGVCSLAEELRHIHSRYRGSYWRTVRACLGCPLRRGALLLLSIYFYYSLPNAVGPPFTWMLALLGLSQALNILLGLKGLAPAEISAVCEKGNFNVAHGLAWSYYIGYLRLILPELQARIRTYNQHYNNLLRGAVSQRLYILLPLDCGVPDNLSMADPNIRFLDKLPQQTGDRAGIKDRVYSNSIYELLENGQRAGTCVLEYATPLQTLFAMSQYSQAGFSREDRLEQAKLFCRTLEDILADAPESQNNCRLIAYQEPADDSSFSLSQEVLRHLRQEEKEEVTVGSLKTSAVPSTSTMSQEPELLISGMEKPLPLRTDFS

Row | Structure (SMILES) | hSTING FTS binding assay (ΔT C. °) [1] | EC50 ([2]; 18 h stimulation, luminescence) [µM] | EC50 [3, 4] [µM] | EC50 ([2]; 18 h) [µM] | EC50 ([3]; 18 h) [µM]
1 | Cc1ccc(N2CCC[C@H](N(Cc3ccnc(C)c3)Cc3cn(C4CC4)c4cc(N5CC[C@H](CN)C5)c(F)cc4c3=O)C2)cn1 [Example 15, 7-[(3R)-3-(Aminomethyl)pyrrolidin-1-yl]-1-cyclopropyl-6-fluoro-3-({[(3S)-1-(6-methylpyridin-3-yl)piperidin-3-yl][(2-methylpyridin-4-yl)methyl]amino}methyl)-1,4-dihydroquinolin-4-one hydrochloride] | +++ (+++=ΔTm ≥20° C.) | < 1 | < 1 |  | 
2 | Cc1ccc(N2CCC[C@H](N(Cc3ccnc(C)c3)Cc3cn(C4CC4)c4cc(N5CCC[C@H](N)C5)c(F)cc4c3=O)C2)cn1 [Example 16, 7-[(3S)-3-Aminopiperidin-1-yl]-1-cyclopropyl-6-fluoro-3-({[(3S)-1-(6-methylpyridin-3-yl)piperidin-3-yl][(2-methylpyridin-4-yl)methyl]amino}methyl)-1,4-dihydroquinolin-4-one] | +++ (+++=ΔTm ≥20° C.) | < 1 | < 1 |  | 
3 | Cc1ccc(N2CCC[C@H](N(Cc3ccnc(C)c3)Cc3cn(C4CC4)c4cc(N5CCC[C@@H](N)C5)c(F)cc4c3=O)C2)cn1 [Example 17, 7-[(3R)-3-Aminopiperidin-1-yl]-1-cyclopropyl-6-fluoro-3-({[(3S)-1-(6-methylpyridin-3-yl)piperidin-3-yl][(2-methylpyridin-4-yl)methyl]amino}methyl)-1,4-dihydroquinolin-4-one] | +++ (+++=ΔTm ≥20° C.) | < 1 | < 1 |  | 
4 | Cc1ccc(N2CCC[C@H](N(Cc3ccnc(C)c3)Cc3cn(CCN)c4ccccc4c3=O)C2)cn1 [Example 18, 1-(2-Aminoethyl)-3-({[(3S)-1-(6-methylpyridin-3-yl)piperidin-3-yl][(2-methylpyridin-4-yl)methyl]amino}methyl)-1,4-dihydroquinolin-4-one] | + (+=ΔTm ≤10° C.) |  |  | 1 to 10 | 1 to 10
5 | CNC1CCN(c2cc3c(cc2F)c(=O)c(CN(Cc2ccnc(C)c2)[C@H]2CCCN(c4ccc(C)nc4)C2)cn3C2CC2)CC1.Cl [Example 19, 1-cyclopropyl-6-fluoro-7-[4-(methylamino)piperidin-1-yl]-3-({[(3S)-1-(6-methylpyridin-3-yl)piperidin-3-yl][(2-methylpyridin-4-yl)methyl]amino}methyl)-1,4-dihydroquinolin-4-one hydrochloride] | +++ (+++=ΔTm ≥20° C.) | < 1 | < 1 |  | 
6 | Cc1ccc(N2CCC[C@H](N(Cc3ccnc(C)c3)Cc3cn(C)c4cc(N5CC[C@@H](O)C5)ccc4c3=O)C2)cn1 [Example 23, 7-[(3R)-3-hydroxypyrrolidin-1-yl]-1-methyl-3-({[(3S)-1-(6-methylpyridin-3-yl)piperidin-3-yl][(2-methylpyridin-4-yl)methyl]amino}methyl)-1,4-dihydroquinolin-4-one] | ++ (++=10<ΔTm <20° C.) | < 1 | < 1 |  | 
7 | Cc1ccc(N2CCC[C@H](N(Cc3ccnc(C)c3)Cc3cn(C4CC4)c4cc(N5CC(CO)C5)c(F)cc4c3=O)C2)cn1 [Example 27, 1-cyclopropyl-6-fluoro-7-[3-(hydroxymethyl)azetidin-1-yl]-3-({[(3S)-1-(6-methylpyridin-3-yl)piperidin-3-yl][(2-methylpyridin-4-yl)methyl]amino}methyl)-1,4-dihydroquinolin-4-one] | +++ (+++=ΔTm ≥20° C.) | < 1 | < 1 |  | 
8 | Cc1ccc(N2CCC[C@H](N(Cc3ccnc(C)c3)Cc3cn(C4CC4)c4cc(N5CCC(O)CC5)c(F)cc4c3=O)C2)cn1.Cl [Example 32, 1-cyclopropyl-6-fluoro-7-(4-hydroxypiperidin-1-yl)-3-({[(3S)-1-(6-methylpyridin-3-yl)piperidin-3-yl][(2-methylpyridin-4-yl)methyl]amino}methyl)-1,4-dihydroquinolin-4-one hydrochloride] | +++ (+++=ΔTm ≥20° C.) | < 1 | < 1 |  | 

More lines, main results first:

Row | hSTING FTS binding assay (ΔT C. °) [1] | EC50 ([2]; 18 h stimulation, luminescence) [µM] | EC50 [3, 4] [µM] | Structure (SMILES) | EC50 ([2]; 18 h) [µM] | EC50 ([3]; 18 h) [µM]
9 | +++ (+++=ΔTm ≥20° C.) | < 1 | < 1 | Cc1ccc(N2CCC[C@H](N(Cc3ccnc(C)c3)Cc3cn(C4CC4)c4cc(N5CC[C@@H](CN)C5)c(F)cc4c3=O)C2)cn1.Cl [Example 20, 7-[(3S)-3-(aminomethyl)pyrrolidin-1-yl]-1-cyclopropyl-6-fluoro-3-({[(3S)-1-(6-methylpyridin-3-yl)piperidin-3-yl][(2-methylpyridin-4-yl)methyl]amino}methyl)-1,4-dihydroquinolin-4-one hydrochloride] |  | 
10 | +++ (+++=ΔTm ≥20° C.) | < 1 | < 1 | COCCn1cc(CN(Cc2ccnc(C)c2)[C@H]2CCCN(c3ccc(N)nc3)C2)c(=O)c2ccccc21.Cl [Example 21, 3-({[(3S)-1-(6-aminopyridin-3-yl)piperidin-3-yl][(2-methylpyridin-4-yl)methyl]amino}methyl)-1-(2-methoxyethyl)-1,4-dihydroquinolin-4-one hydrochloride] |  | 
11 | +++ (+++=ΔTm ≥20° C.) | < 1 | < 1 | Cc1ccc(N2CCC[C@H](N(Cc3ccnc(C)c3)Cc3cn(C4CC4)c4cc(N5CC(N)C6(CC6)C5)c(F)cc4c3=O)C2)cn1.Cl (stereo partly drawn) [Example 22, 7-{7-amino-5-azaspiro[2.4]heptan-5-yl}-1-cyclopropyl-6-fluoro-3-({[(3S)-1-(6-methylpyridin-3-yl)piperidin-3-yl][(2-methylpyridin-4-yl)methyl]amino}methyl)-1,4-dihydroquinolin-4-one hydrochloride] |  | 
12 | +++ (+++=ΔTm ≥20° C.) | < 1 | < 1 | Cc1ccc(N2CCC[C@H](N(Cc3ccnc(C)c3)Cc3cn(C4CC4)c4cc(N5CCC(N)C(F)(F)C5)c(F)cc4c3=O)C2)cn1 (stereo partly drawn) [Example 26, 7-(4-amino-3,3-difluoropiperidin-1-yl)-1-cyclopropyl-6-fluoro-3-({[(3S)-1-(6-methylpyridin-3-yl)piperidin-3-yl][(2-methylpyridin-4-yl)methyl]amino}methyl)-1,4-dihydroquinolin-4-one] |  | 
13 | +++ (+++=ΔTm ≥20° C.) | < 1 | < 1 | Cc1ccc(N2CCC[C@H](N(Cc3ccnc(C)c3)Cc3cn(C4CC4)c4cc(N5CCC[C@@H](O)C5)c(F)cc4c3=O)C2)cn1.Cl [Example 28, 1-cyclopropyl-6-fluoro-7-[(3R)-3-hydroxypiperidin-1-yl]-3-({[(3S)-1-(6-methylpyridin-3-yl)piperidin-3-yl][(2-methylpyridin-4-yl)methyl]amino}methyl)-1,4-dihydroquinolin-4-one hydrochloride] |  | 
14 | +++ (+++=ΔTm ≥20° C.) | < 1 | < 1 | Cc1cc(CN(Cc2cn(C)c3cc(Br)ccc3c2=O)[C@H]2CCCN(c3ccc(N)nc3)C2)ccn1.Cl [Example 29, 3-({[(3S)-1-(6-aminopyridin-3-yl)piperidin-3-yl][(2-methylpyridin-4-yl)methyl]amino}methyl)-7-bromo-1-methyl-1,4-dihydroquinolin-4-one hydrochloride] |  | 
15 | +++ (+++=ΔTm ≥20° C.) | < 1 | < 1 | Cc1ccc(N2CCC[C@H](N(Cc3ccnc(C)c3)Cc3cn(C4CC4)c4cc(N5CCC(F)(CN)C5)c(F)cc4c3=O)C2)cn1 (stereo partly drawn) [Example 30, 7-[3-(aminomethyl)-3-fluoropyrrolidin-1-yl]-1-cyclopropyl-6-fluoro-3-({[(3S)-1-(6-methylpyridin-3-yl)piperidin-3-yl][(2-methylpyridin-4-yl)methyl]amino}methyl)-1,4-dihydroquinolin-4-one] |  | 
16 | +++ (+++=ΔTm ≥20° C.) | < 1 | < 1 | CNC1CCN(c2cc3c(cc2F)c(=O)c(CN(Cc2ccnc(C)c2)[C@H]2CCCN(c4ccc(C)nc4)C2)cn3C2CC2)C1 (stereo partly drawn) [Example 33, 1-cyclopropyl-6-fluoro-7-[3-(methylamino)pyrrolidin-1-yl]-3-({[(3S)-1-(6-methylpyridin-3-yl)piperidin-3-yl][(2-methylpyridin-4-yl)methyl]amino}methyl)-1,4-dihydroquinolin-4-one] |  | 
17 | +++ (+++=ΔTm ≥20° C.) | < 1 | < 1 | Cc1cc(CN(Cc2cn(C(C)C)c3ccccc3c2=O)[C@H]2CCCN(c3ccc(N)nc3)C2)ccn1.Cl [Example 34, 3-({[(3S)-1-(6-aminopyridin-3-yl)piperidin-3-yl][(2-methylpyridinyl-4-yl)methyl]amino}methyl)-1-(propan-2-yl)-1,4-dihydroquinolin-4-one hydrochloride] |  | 
18 | +++ (+++=ΔTm ≥20° C.) | < 1 | < 1 | Cc1cc(CN(Cc2cn(C3COC3)c3ccccc3c2=O)[C@H]2CCCN(c3ccc(N)nc3)C2)ccn1 [Example 35, 3-({[(3S)-1-(6-aminopyridin-3-yl)piperidin-3-yl][(2-methylpyridin-4-yl)methyl]amino}methyl)-1-(oxetan-3-yl)-1,4-dihydroquinolin-4-one] |  | 

— US12643879B2, “Functionalized heterocyclic compounds as modulators of stimulator of interferon genes (STING)” (RYVU THERAPEUTICS S.A., priority 2019, dated 2026)
